# Laboratory results as given in paper PMC7932537, “Quantitative profiling of protease specificity” (PLoS Computational Biology, 2021).
# Tests used:
# MMP-2 = assay: Substrate phage display with NGS: relative probability (RP) of P3-P1' tetramer clusters; assay type: biochemical, human; conditions: for avg_RP: MMP2 - no binning; for relative probability (RP) of matching tetramer: P3-P1' tetramer matching the MS detected MMP2 cleavage sequence, RP_above_4.5; for normalized RP - MMP2: normalized RP of matching tetramer; for MMP2 relative probability (RP): MMP2 tetramers from unique substrates, unrounded values; for corresponding MMP2 relative probability (RP): MMP9 tetramers from unique substrates, RP of same tetramer for MMP2
# MMP-9 = assay: as above; assay type: biochemical, human; conditions: for normalized RP - MMP9: normalized RP of matching tetramer; for corresponding MMP9 relative probability (RP): MMP2 tetramers from unique substrates, RP of same tetramer for MMP9; for MMP9 relative probability (RP): MMP9 tetramers from unique substrates, unrounded values
# [1] = RP of the P3-P1' tetramer cluster contained in the hexamer, 200 nM MMP-2, 2 h, 37°C, two rounds of selection
# [2] = MMP9, RP of the P3-P1' tetramer contained in the hexamer substrate (substrate phage display, NGS)
# [3] = average relative probability of the tetramer, redundant tetramers averaged out
# [4] = RP of the P3-P1' tetramer, MMP2 substrate phage display/NGS, tetramers of physiologic MEROPS substrates common to MMP2 and MMP9
# [5] = RP of the P3-P1' tetramer, MMP9 substrate phage display/NGS, tetramers of physiologic MEROPS substrates common to MMP2 and MMP9
# [6] = MMP2, RP of matching P3-P1' tetramer, common set of MMP2-9 selectome, RP above KL threshold
# [7] = MMP9, RP of matching P3-P1' tetramer, common set of MMP2-9 selectome
# [8] = RP of matching tetramer, unique part of MMP2 selectome, RP above KL threshold
# [9] = RP of matching tetramer, unique part of MMP2 selectome
# [10] = RP according to MMP2, P3-P1' tetramer of unique physiologic MMP2 substrates from MEROPS
# [11] = RP according to MMP9, P3-P1' tetramer of unique physiologic MMP9 substrates from MEROPS
# [12] = RP of matching tetramer, common MMP2-9 selectome
# [13] = MMP9, RP of the P3-P1' tetramer matching the MS detected cleavage, RP above 4.7, substrate phage display with NGS
# [14] = RP of matching tetramer, common MMP2-9 selectome, RP above KL threshold
# [15] = average relative probability of the P3-P1' tetramer, redundant tetramers have been averaged out
substance,measurement,setting,value
PYGIKG,relative probability (RP),MMP-2; [1],28.2788
same,relative probability (RP),MMP-9; [2],49.5245
PYGL,avg_RP,MMP-2; [3],32.9966
same,relative probability (RP) (acc.to MMP2),MMP-2; [4],33
same,relative probability (RP) (acc.to MMP9),MMP-9; [5],49.41
PYSI,relative probability (RP) (acc.to MMP2),MMP-2; [6],23.85
same,relative probability (RP) of matching tetramer,MMP-2,23.85
same,relative probability (RP) (acc.to MMP9),MMP-9; [7],45.53
QAQL,relative probability (RP) of matching tetramer,MMP-2,6.16
same,relative probability (RP) (acc.to MMP2),MMP-2; [8],6.16
same,normalized RP - MMP2,MMP-2; unique part of MMP2 selectome,0.1687
same,relative probability (RP) (acc.to MMP9),MMP-9; [9],0.06
same,normalized RP - MMP9,MMP-9; unique part of MMP2 selectome,0.001145
QGAI,relative probability (RP) (acc.to MMP2),MMP-2; [4],1.94
same,relative probability (RP) (acc.to MMP9),MMP-9; [5],0
QGPAAI,relative probability (RP),MMP-2; [1],32.0972
same,relative probability (RP),MMP-9; [2],46.1642
QPLEIR,relative probability (RP),MMP-2; [1],19.9123
same,relative probability (RP),MMP-9; [2],43.9826
QPPLPL,relative probability (RP),MMP-2; [1],35.0814
same,relative probability (RP),MMP-9; [2],49.0268
QQPQAL,relative probability (RP),MMP-2; [1],34.4508
same,relative probability (RP),MMP-9; [2],48.457
QQPSRL,relative probability (RP),MMP-2; [1],31.7732
same,relative probability (RP),MMP-9; [2],39.8157
QRGI,avg_RP,MMP-2; [3],7.4836
same,MMP2 relative probability (RP),MMP-2,7.484
same,Relative probability (RP) rank,MMP-2; [10],6090
same,relative probability (RP),MMP-2; [10],7.48
same,relative probability (RP) (acc.to MMP2),MMP-2; [4],7.48
same,corresponding MMP9 relative probability (RP),MMP-9,0.7406
same,Relative probability (RP) rank,MMP-9; [11],19198
same,relative probability (RP),MMP-9; [11],0.74
same,relative probability (RP) (acc.to MMP9),MMP-9; [5],0.74
QSPINL,relative probability (RP),MMP-2; [1],31.6393
same,relative probability (RP),MMP-9; [2],44.8884
RGEL,MMP2 relative probability (RP),MMP-2,14.9989
same,Relative probability (RP) rank,MMP-2; [10],3096
same,relative probability (RP),MMP-2; [10],15
same,corresponding MMP9 relative probability (RP),MMP-9,0.3681
RMMREL,relative probability (RP),MMP-2; [1],19.1524
same,relative probability (RP),MMP-9; [2],21.3182
RPEDLR,relative probability (RP),MMP-2; [1],6.012
same,relative probability (RP),MMP-9; [2],13.0748
RRPRPL,relative probability (RP),MMP-2; [1],34.3303
same,relative probability (RP),MMP-9; [2],46.7888
SAAQPL,relative probability (RP),MMP-2; [1],14.4283
same,relative probability (RP),MMP-9; [2],28.189
SAPL,relative probability (RP) of matching tetramer,MMP-2,18.44
same,relative probability (RP) (acc.to MMP2),MMP-2; [8],18.44
same,normalized RP - MMP2,MMP-2; unique part of MMP2 selectome,0.5049
same,relative probability (RP) (acc.to MMP9),MMP-9; [9],2.49
same,normalized RP - MMP9,MMP-9; unique part of MMP2 selectome,0.04754
SDEL,relative probability (RP) (acc.to MMP2),MMP-2; [4],0
same,relative probability (RP) (acc.to MMP9),MMP-9; [5],0
SFGL,corresponding MMP2 relative probability (RP),MMP-2,10.7897
same,relative probability (RP) (acc.to MMP2),MMP-2; [4],0.19
same,MMP9 relative probability (RP),MMP-9,0.1902
same,relative probability (RP) (acc.to MMP9),MMP-9; [5],10.79
SIPLPL,relative probability (RP),MMP-2; [1],35.0814
same,relative probability (RP),MMP-9; [2],49.0268
SKYL,relative probability (RP) (acc.to MMP2),MMP-2; [4],4.49
same,relative probability (RP) (acc.to MMP9),MMP-9; [5],0.25
SLPQ,relative probability (RP) (acc.to MMP2),MMP-2; [4],0.51
same,relative probability (RP) (acc.to MMP9),MMP-9; [5],0.1
SPMAFS,relative probability (RP),MMP-2; [1],29.2698
same,relative probability (RP),MMP-9; [2],45.5118
SPPAAI,relative probability (RP),MMP-2; [1],32.0972
same,relative probability (RP),MMP-9; [2],46.1642
SRPAEF,relative probability (RP),MMP-2; [1],19.4662
same,relative probability (RP),MMP-9; [2],11.7405
TAPSSQ,relative probability (RP),MMP-2; [1],25.0042
same,relative probability (RP),MMP-9; [2],27.1142
TGLT,relative probability (RP) (acc.to MMP2),MMP-2; [4],0.24
same,Relative probability (RP) rank,MMP-9; [11],41284
same,relative probability (RP),MMP-9; [11],0.21
same,relative probability (RP) (acc.to MMP9),MMP-9; [5],0.21
TLGL,relative probability (RP) (acc.to MMP2),MMP-2; [6],6
same,relative probability (RP) of matching tetramer,MMP-2,6
same,relative probability (RP) (acc.to MMP2),MMP-2; [12],6
same,relative probability (RP) (acc.to MMP9),MMP-9; [7],9.79
same,relative probability (RP),MMP-9; [13],9.79
same,relative probability (RP) (acc.to MMP9),MMP-9; [14],9.79
TPAAMT,relative probability (RP),MMP-2; [1],33.3115
same,relative probability (RP),MMP-9; [2],48.1518
TQPKAM,relative probability (RP),MMP-2; [1],31.5595
same,relative probability (RP),MMP-9; [2],48.8005
TTPSPI,relative probability (RP),MMP-2; [1],32.5241
same,relative probability (RP),MMP-9; [2],43.889
VAEM,MMP2 relative probability (RP),MMP-2,19.6601
same,Relative probability (RP) rank,MMP-2; [10],1857
same,relative probability (RP),MMP-2; [10],19.66
same,relative probability (RP) (acc.to MMP2),MMP-2; [4],19.66
same,corresponding MMP9 relative probability (RP),MMP-9,2.985
same,Relative probability (RP) rank,MMP-9; [11],7772
same,relative probability (RP),MMP-9; [11],2.99
same,relative probability (RP) (acc.to MMP9),MMP-9; [5],2.99
VEPLKF,relative probability (RP),MMP-2; [1],11.7082
same,relative probability (RP),MMP-9; [2],27.4837
VGEY,MMP2 relative probability (RP),MMP-2,13.6759
same,Relative probability (RP) rank,MMP-2; [10],3547
same,relative probability (RP),MMP-2; [10],13.68
same,corresponding MMP9 relative probability (RP),MMP-9,0.1188
VGGL,relative probability (RP) (acc.to MMP2),MMP-2; [6],26.45
same,relative probability (RP) of matching tetramer,MMP-2,26.45
same,relative probability (RP) (acc.to MMP2),MMP-2; [12],26.45
same,relative probability (RP) (acc.to MMP9),MMP-9; [7],9.44
same,relative probability (RP),MMP-9; [13],9.44
same,relative probability (RP) (acc.to MMP9),MMP-9; [14],9.44
VGKL,MMP2 relative probability (RP),MMP-2,21.0562
same,Relative probability (RP) rank,MMP-2; [10],1553
same,relative probability (RP),MMP-2; [10],21.06
same,corresponding MMP9 relative probability (RP),MMP-9,3.141
same,Relative probability (RP) rank,MMP-9; [11],7569
same,relative probability (RP),MMP-9; [11],3.14
VHPSAV,relative probability (RP),MMP-2; [1],29.6865
same,relative probability (RP),MMP-9; [2],36.5372
VPQEWR,relative probability (RP),MMP-2; [1],10.5981
same,relative probability (RP),MMP-9; [2],10.1914
VQAM,relative probability (RP) (acc.to MMP2),MMP-2; [12],21.36
same,relative probability (RP),MMP-9; [13],21.63
same,relative probability (RP) (acc.to MMP9),MMP-9; [14],21.63
VRNI,relative probability (RP) (acc.to MMP2),MMP-2; [6],25.21
same,relative probability (RP) of matching tetramer,MMP-2,25.21
same,relative probability (RP) (acc.to MMP2),MMP-2; [12],25.21
same,relative probability (RP) (acc.to MMP9),MMP-9; [7],38.1
same,relative probability (RP),MMP-9; [13],38.1
same,relative probability (RP) (acc.to MMP9),MMP-9; [14],38.1
VSALSS,relative probability (RP),MMP-2; [1],32.3417
same,relative probability (RP),MMP-9; [2],28.865
VSHY,relative probability (RP) (acc.to MMP2),MMP-2; [4],21.33
same,relative probability (RP) (acc.to MMP9),MMP-9; [5],15.49
VSSL,avg_RP,MMP-2; [15],29.0891
same,relative probability (RP) (acc.to MMP2),MMP-2; [6],29.09
same,relative probability (RP) of matching tetramer,MMP-2,29.09
same,relative probability (RP) (acc.to MMP9),MMP-9; [7],17.98
VTPR,relative probability (RP) (acc.to MMP2),MMP-2; [4],0.18
same,relative probability (RP) (acc.to MMP9),MMP-9; [5],0.46
VYHQ,corresponding MMP2 relative probability (RP),MMP-2,13.6887
same,MMP9 relative probability (RP),MMP-9,0.1039
WGAL,avg_RP,MMP-2; [3],26.3441
same,relative probability (RP) of matching tetramer,MMP-2,26.34
same,relative probability (RP) (acc.to MMP2),MMP-2; [8],26.34
same,normalized RP - MMP2,MMP-2; unique part of MMP2 selectome,0.7212
same,relative probability (RP) (acc.to MMP9),MMP-9; [9],3.54
same,normalized RP - MMP9,MMP-9; unique part of MMP2 selectome,0.06758
WPSPFR,relative probability (RP),MMP-2; [1],30.9274
same,relative probability (RP),MMP-9; [2],37.3217
YSNI,avg_RP,MMP-2; [15],14.6847
same,MMP2 relative probability (RP),MMP-2,14.6847
same,Relative probability (RP) rank,MMP-2; [10],3195
same,relative probability (RP),MMP-2; [10],14.68
same,corresponding MMP9 relative probability (RP),MMP-9,0.05486
